Results reported in ChEMBL document CHEMBL1127962, “Investigation of the effects of synthetic, non-cytotoxic immunophilin inhibitors on MDR” (1994).

What was measured:
[1] = molecular target: Peptidyl-prolyl cis-trans isomerase FKBP1A (Homo sapiens) (UniProt P62942); experiment: In vitro inhibition of non-cytotoxic immunophilin FK506 binding protein activity
KB = experiment: In vitro reversal of multidrug resistance (MDR) in human carcinoma cell line; assay type: functional

Sequence of Peptidyl-prolyl cis-trans isomerase FKBP1A (Homo sapiens) (P62942 whole entry): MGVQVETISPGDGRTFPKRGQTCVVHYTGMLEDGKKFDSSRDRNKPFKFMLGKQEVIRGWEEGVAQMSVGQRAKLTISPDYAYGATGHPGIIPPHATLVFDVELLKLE

COc1cccc(C(=O)CN2CCCCC2C(=O)N[C@@H](Cc2ccccc2)C(=O)N[C@H](/C=C/I)C(C)C)c1 (some centres undefined)
Activity [1]: 2 µM
Activity (KB): 30 µM

C#C[C@@H](NC(=O)[C@H](Cc1ccccc1)NC(=O)C1CCCCN1CC(=O)c1cccc(OC)c1)C(C)C (some centres undefined)
Activity [1]: 5 µM
Activity (KB): 11 µM

COc1cccc(C(=O)CN2CCCCC2C(=O)N[C@@H](Cc2ccccc2)C(=O)N[C@H](/C=C/COC(=O)C(F)(F)F)C(C)C)c1 (some centres undefined)
Activity [1]: 1 µM
Activity (KB): 49 µM

COC(=O)[C@H](Cc1ccccc1)NC(=O)[C@@H](NC(=O)[C@H](Cc1ccccc1)NC(=O)C1CCCCN1CC(=O)c1cccc(OC)c1)C(C)C (some centres undefined)
Activity [1]: 1 µM
Activity (KB): >50 µM

COc1cccc(C(=O)CN2CCCCC2C(=O)N[C@@H](Cc2ccccc2)C(=O)N[C@H](C(=O)OC(C)(C)C)C(C)C)c1 (some centres undefined)
Activity [1]: 3 µM
Activity (KB): 6 µM

C[C@H](/C=C/c1ccc(C(=O)C(=O)N2CCCC2C(=O)OC(C)(C)C)s1)CO (some centres undefined)
Activity [1]: > 100 µM
Activity (KB): >50 µM

C[C@H](/C=C/c1ccc(C(=O)C(=O)N2CCCC2C(=O)N[C@@H](CC2CCCCC2)C(=O)OC(C)(C)C)s1)CO (some centres undefined)
Activity [1]: > 100 µM
Activity (KB): 13 µM

COC(=O)C(=O)N1CCCC1C(=O)N[C@@H](Cc1ccccc1)C(=O)OC(C)(C)C (some centres undefined)
Activity [1]: > 50 µM
Activity (KB): >50 µM

C=CCOC/C=C/[C@@H](NC(=O)[C@H](Cc1ccccc1)NC(=O)C1CCCCN1CC(=O)c1cccc(OC)c1)C(C)C (some centres undefined)
Activity [1]: 3 µM
Activity (KB): 6 µM

COc1cccc(C(=O)CN2CCCCC2C(=O)N[C@@H](Cc2ccccc2)C(=O)N[C@H](/C=C/COC(C)=O)C(C)C)c1 (some centres undefined)
Activity [1]: 2 µM
Activity (KB): >50 µM

COc1cccc(C(=O)CN2CCCCC2C(=O)N[C@@H](Cc2ccccc2)C(=O)N[C@@H](CC(C)C)C(=O)OC(C)(C)C)c1 (some centres undefined)
Activity [1]: 6 µM
Activity (KB): 7 µM

COC(=O)[C@H](Cc1ccccc1)NC(=O)[C@@H](NC(=O)[C@H](Cc1ccccc1)NC(=O)C1CCCCN1CC(=O)c1ccc2ccccc2c1)C(C)C (some centres undefined)
Activity [1]: 0.3 µM
Activity (KB): >50 µM

CCC(C)C[C@H](NC(=O)C1CCCCN1CC(=O)c1cccc(OC)c1)C(=O)OC(C)(C)C (some centres undefined)
Activity [1]: 8 µM
Activity (KB): >50 µM

CC(C)[C@H](NC(=O)[C@H](Cc1ccccc1)NC(=O)C1CCCCN1CC(=O)c1ccc2ccccc2c1)C(=O)OC(C)(C)C (some centres undefined)
Activity [1]: 1 µM
Activity (KB): 5 µM

C[C@H](/C=C/c1ccc(C(=O)C(=O)N2CCCC2C(=O)N[C@@H](Cc2ccccc2)C(=O)OC(C)(C)C)s1)CO (some centres undefined)
Activity [1]: 100 µM
Activity (KB): >50 µM

COc1cccc(C(=O)CN2CCCCC2C(=O)N[C@@H](Cc2ccccc2)C(=O)OC(C)(C)C)c1 (some centres undefined)
Activity [1]: 3 µM
Activity (KB): >50 µM

C=CCC(CC(C)C[C@H](C)C[C@H](OC)C1OC(O)(C(=O)C(=O)N2CCCCC2)[C@H](C)C[C@@H]1OC)C(=O)C[C@H](O)[C@@H](C)[C@H](OC(C)=O)C(C)CC1CC[C@@H](O)C(OC)C1 (some centres undefined)
Activity [1]: 0.001 µM
Activity (KB): 5 µM
